# Where two headings read alike, the source gives them in different places.
# What was measured:
# Aedes albopictus [1] = test: Effective dose / protection efficacy, human-bait technique; assay type: in vivo; details: for pest or weed control at 0.081 µg/cm2, 0.081 µg/cm2 / pest or weed control at 0.17 µg/cm2, 0.17 µg/cm2 / pest or weed control at 0.33 µg/cm2, 0.33 µg/cm2 / pest or weed control at 0.5 µg/cm2, 0.5 µg/cm2 / pest or weed control at 0.83 µg/cm2, 0.83 µg/cm2 / pest or weed control at 1.7 µg/cm2, 1.7 µg/cm2 / pest or weed control at 8.3 µg/cm2, 8.3 µg/cm2 / pest or weed control at 16.7 µg/cm2, 16.7 µg/cm2 / pest or weed control at 83.3 µg/cm2, 83.3 µg/cm2: Aedes albopictus, topical, read-out: Protection efficacy PE%; for 100% PE: Table S1
# Experimental: The repellence of DEET, Icaridin (both supplied by Istituto Biochimico VEBI s.r.l.), acetals, and the synthesized hydroxyacetals was evaluated againstAedes albopictususing the human-bait technique (to simulate the condition of human skin on which repellents will be applied).[22]A. albopictuswas reared and tested at 26 ± 2 °C, ≥60 ± 10% relative humidity (RH), and at 14:10 h light/dark photoperiod, within Plexiglas cylindrical laboratory cages (35 cm diameter, 60 cm length) with one end closed by a net. During the tests, cages contained ≈150 nulliparous, 4–7 day-old, nonblood-fed females. For each compound to be tested, up to six volunteers participated in the trial.
# The study was approved by the Regional Ethics Committee for Clinical Trials of Tuscany Region with the registered number 20383. Volunteers agreed to take part in the experiments following informed consent; only volunteers non-allergic to mosquito bites participated in the trials. On the day of the bioassay, they had no contact with lotions, perfumes, oils, or perfumed soaps. They wore latex surgical gloves, in which a dorsal square area of 30 cm^2 was cut open. Mosquito-exposed skin was treated with 50 μL of ethanol, as the negative hand control. The other hand was treated with 50 μL of the tested compounds in ethanol solution (dosages corresponding to 0.081, 0.17, 0.33, 0.5, 0.83, 1.7, 8.3, 16.7, and 83.3 μg/cm^2). Both hands were presented in the same test cage. The number of probing mosquitoes in a 3 min exposure period was recorded. During each test, the control and the treated hand were presented interchanged to verify the mosquitoes’ readiness to bite. Trials were considered valid only if at least 30 mosquitoes performed probing behavior on the control hand before each repellent dosage was tested. The protection efficacy (PE %) obtained from all replicates was calculated, according to the WHO guidelines[31] using this formula [drawing 1]
# To evaluate the protection efficacy, volunteers applied increasing doses of the compounds to the skin on the back of their hands (30 cm^2, while the rest was covered with a rubber glove) and counted the number of mosquitoes attempting to bite; the solvent only was used on the control hand. The protection (percentage of repelled mosquitoes) was calculated as reported in the Material and Methods section.
# Aedes albopictus [2] = test: Protection time at 0.17 mg/cm2, human-bait technique; assay type: in vivo; details: for pest or weed control at 0.17 mg/cm2, 0.17 mg/cm2: Aedes albopictus, topical, read-out: Protection time PE%
# Experimental: To evaluate the protection time of derivatives, the PE % was measured with 100 μL of a 5% ethanol solution, corresponding to 0.17 mg/cm^2 of exposed skin, under the same laboratory conditions. Mosquito-exposed skin was treated with 100 μL of ethanol, as the negative hand control. For each volunteer (up to 8), the test was performed every hour, up to 8 h from the application. The protection time of DEET and Icaridin was measured under the same conditions. Since these trials were run in parallel with those aimed to profile the cytotoxicity of the compounds (paragraph 2.6), we interrupted the experiments for those compounds showing to have higher cytotoxicity than Icaridin and DEET as soon as the results were available. For this reason, the number of volunteers differs among the compounds.
# The average time until protection which was higher than 95% protection time was considered for each compound. Moreover, for the compounds tested on at least three volunteers, the complete (100%) protection time was also estimated (SPSS 28.01.0) using the Kaplan–Meier survivor function procedure.[22]
# HaCaT cells = test: Cytotoxicity on human keratinocytes (MTS); assay type: cell-based; details: 82 μg/mL, 24 h
# Experimental: HaCaT cells were cultured in 5% CO2 at 37 °C in Dulbecco’s modified Eagle’s medium (DMEM), supplemented with 10% fetal bovine serum (FBS), 1% L-glutamine ([…]), and 1% penicillin–streptomycin (Thermo Fisher Scientific, Rodano, Milan, Italy). […] Experiments were performed in triplicate.
# RAW 264.7 = test: Immunogenicity on murine macrophages (nitric oxide release); assay type: cell-based
# Experimental: Cells were cultured in DMEM, with 10% FBS, 1% L-glutamine (2 mM), and 1% penicillin–streptomycin 100 U/mL at 37 °C in an atmosphere containing 5% CO2. RAW264.7 were seeded (1 × 10^5 cells/well) and exposed to five derivatives or Icaridin, at 82 μg/mL or to LPS (1 μg/mL) as a positive control, for 3 and 6 h. After that, nitric oxide release was determined in the culture media as previously described.[32] Experiments were performed in triplicate.
compound,measurement,setting,value
CCCCC1(CCCC)OCC(CC)(CO)CO1 [16c],"pest or weed control at 0.081 µg/cm2, 0.081 µg/cm2",Aedes albopictus [1]; 0.081 µg/cm2,6.06%
same,"pest or weed control at 0.17 µg/cm2, 0.17 µg/cm2",Aedes albopictus [1]; 0.17 µg/cm2,59.5%
same,"pest or weed control at 0.33 µg/cm2, 0.33 µg/cm2",Aedes albopictus [1]; 0.33 µg/cm2,8.39%
same,"pest or weed control at 0.5 µg/cm2, 0.5 µg/cm2",Aedes albopictus [1]; 0.5 µg/cm2,36.2%
same,"pest or weed control at 0.83 µg/cm2, 0.83 µg/cm2",Aedes albopictus [1]; 0.83 µg/cm2,52.9%
same,"pest or weed control at 1.7 µg/cm2, 1.7 µg/cm2",Aedes albopictus [1]; 1.7 µg/cm2,95.5%
same,"pest or weed control at 8.3 µg/cm2, 8.3 µg/cm2",Aedes albopictus [1]; 8.3 µg/cm2,100%
same,"pest or weed control at 16.7 µg/cm2, 16.7 µg/cm2",Aedes albopictus [1]; 16.7 µg/cm2,100%
same,"pest or weed control at 83.3 µg/cm2, 83.3 µg/cm2",Aedes albopictus [1]; 83.3 µg/cm2,100%
same,100% PE,Aedes albopictus [1],1.7 µg/cm2
same,Protection efficacy (dose to obtain complete protection (100%) from bite attempts),"Aedes albopictus [1]; applied on skin of volunteers, 3 min exposure",8.3 μg/cm^2
same,"pest or weed control at 0.17 mg/cm2, 0.17 mg/cm2","Aedes albopictus [2]; 0.17mg/cm2, 1 h",99%
same,"pest or weed control at 0.17 mg/cm2, 0.17 mg/cm2","Aedes albopictus [2]; 0.17mg/cm2, 2 h",96.3%
same,"pest or weed control at 0.17 mg/cm2, 0.17 mg/cm2","Aedes albopictus [2]; 0.17mg/cm2, 3 h",97.6%
same,"pest or weed control at 0.17 mg/cm2, 0.17 mg/cm2","Aedes albopictus [2]; 0.17mg/cm2, 4 h",97.1%
same,"pest or weed control at 0.17 mg/cm2, 0.17 mg/cm2","Aedes albopictus [2]; 0.17mg/cm2, 5 h",94.8%
same,"pest or weed control at 0.17 mg/cm2, 0.17 mg/cm2","Aedes albopictus [2]; 0.17mg/cm2, 6 h",95.4%
same,"pest or weed control at 0.17 mg/cm2, 0.17 mg/cm2","Aedes albopictus [2]; 0.17mg/cm2, 7 h",95.1%
same,"pest or weed control at 0.17 mg/cm2, 0.17 mg/cm2","Aedes albopictus [2]; 0.17mg/cm2, 8 h",99%
same,Average PT >95% (% coefficient of variation),Aedes albopictus [2]; at the dose of 0.17mg/cm2,480 (1.4) min
same,Protection time (95% protection),"Aedes albopictus [2]; dose of 0.17 mg/cm^2, tests ended after 8 h",8 h
same,survival of keratocytes,HaCaT cells,> 88%
"CCC(C)OC(=O)N1CCCCC1CCO (stereo not shown) [Icaridin, reference compound]","pest or weed control at 0.081 µg/cm2, 0.081 µg/cm2",Aedes albopictus [1],42.4%
same,"pest or weed control at 0.17 µg/cm2, 0.17 µg/cm2",Aedes albopictus [1],53.7%
same,"pest or weed control at 0.33 µg/cm2, 0.33 µg/cm2",Aedes albopictus [1],61.8%
same,"pest or weed control at 0.5 µg/cm2, 0.5 µg/cm2",Aedes albopictus [1],77.8%
same,"pest or weed control at 0.83 µg/cm2, 0.83 µg/cm2",Aedes albopictus [1],69.3%
same,"pest or weed control at 1.7 µg/cm2, 1.7 µg/cm2",Aedes albopictus [1],99.6%
same,"pest or weed control at 8.3 µg/cm2, 8.3 µg/cm2",Aedes albopictus [1],100%
same,"pest or weed control at 16.7 µg/cm2, 16.7 µg/cm2",Aedes albopictus [1],100%
same,"pest or weed control at 83.3 µg/cm2, 83.3 µg/cm2",Aedes albopictus [1],100%
same,100% PE,Aedes albopictus [1],8.3 µg/cm2
same,Protection time PE%,"Aedes albopictus [2]; 0.17mg/cm2, 0 min",100%
same,"pest or weed control at 0.17 mg/cm2, 0.17 mg/cm2",Aedes albopictus [2]; 1 h,100%
same,"pest or weed control at 0.17 mg/cm2, 0.17 mg/cm2",Aedes albopictus [2]; 2 h,100%
same,"pest or weed control at 0.17 mg/cm2, 0.17 mg/cm2",Aedes albopictus [2]; 3 h,99.5%
same,"pest or weed control at 0.17 mg/cm2, 0.17 mg/cm2",Aedes albopictus [2]; 4 h,99.5%
same,"pest or weed control at 0.17 mg/cm2, 0.17 mg/cm2",Aedes albopictus [2]; 5 h,99.8%
same,"pest or weed control at 0.17 mg/cm2, 0.17 mg/cm2",Aedes albopictus [2]; 6 h,98.7%
same,"pest or weed control at 0.17 mg/cm2, 0.17 mg/cm2",Aedes albopictus [2]; 7 h,98.7%
same,"pest or weed control at 0.17 mg/cm2, 0.17 mg/cm2",Aedes albopictus [2]; 8 h,97.6%
same,Average PT >95% (% coefficient of variation),Aedes albopictus [2]; at the dose of 0.17mg/cm2,480 (2.2) min
same,"Estimated 100% PT (complete protection time, mean±SE)","Aedes albopictus [2]; at the dose of 0.17mg/cm2, Kaplan–Meier estimate",370 ± 52 min
same,survival of keratocytes,HaCaT cells,91%
same,"immunogenicity (nitric oxide release / nitrite production), in words","RAW 264.7; RAW264.7, 82 μg/mL, 6 h",three-time increase in the nitrite production compared to the control treatment
same,production of nitrite as compared to the positive control,"RAW 264.7; RAW264.7, positive control LPS 1 μg/mL",40%
